Where “and” joins values, the source holds several entries; their conditions need not be identical. Identical values can stand only once. After the bases stand the sugars from the 5' end (letter, count) and the backbone: PS all phosphorothioate, else s phosphorothioate and o phosphodiester by linkage. Methylation of C is not given here. e = 2'-O-(2-methoxyethyl) (MOE); k = constrained ethyl (cEt); d = 2'-deoxy (DNA)
Biological target: SOD1
Conditions: ASO

For “TTGGCCCACCGTGTTTTCTG (sugars e5 d10 e5, PS)”, the target mRNA inhibition (HepG2, 5 µM) was 35% and 26%.
“TCCAACATGCCTCTCTT (sugars e3 k2 d7 k2 e3, PS)” was tested, and the target mRNA inhibition (HepG2, 3 µM) was 0%.
Sequence “TAAGTCTGGCAAAATAC (sugars e3 k2 d7 k2 e3, PS)” has a target mRNA inhibition (HepG2, 3 µM) of 4%.
For “GGGCGATCCCAATTACA (sugars e2 k2 d9 k2 e2, PS)”, the target mRNA inhibition (HepG2, 4 µM) was 30%.
With “AGCCTCATAATAAGTGC (sugars e2 k2 d8 k2 e3, PS)” the target mRNA inhibition (HepG2, 5 µM) was 16%.
“TCTGTGATTTAAGTCTGGCA (sugars e5 d10 e5, PS)” showed a target mRNA inhibition (HepG2, 5 µM) of 44%.
For “CAGTTTCTCACTACAGGTAC (sugars e5 d10 e5, PS)”, the target mRNA inhibition (HepG2, 5 µM) was 25%.
With “CACAAGCCAAACGACTTCCA (sugars e5 d10 e5, PS)” the target mRNA inhibition (HepG2, 5 µM) was 47%.
In the case of “TTCATCCTTTGGCCCACCGT (sugars e5 d10 e5, PS)”, the target mRNA inhibition (HepG2, 3 µM) is reported as 30%.
In the case of “ACAGGGTTTTTATTCAC (sugars e2 k2 d8 k2 e3, PS)”, the target mRNA inhibition (HepG2, 5 µM) is reported as 29%.
Work on “GGGCGATCCCAATTACA (sugars e3 k2 d7 k2 e3, PS)” yielded a target mRNA inhibition (HepG2, 3 µM) of 18%.
For “CCATCTGTGATTTAAGT (sugars e2 k2 d9 k2 e2, PS)”, the target mRNA inhibition (HepG2, 5 µM) was 47%.
With “ACTACATCCAAGGGAAT (sugars e2 k2 d9 k2 e2, PS)” the target mRNA inhibition (HepG2, 4 µM) was 48%.
In the case of “TTAATGTTTATCAGGAT (sugars e2 k2 d8 k2 e3, PS)”, the target mRNA inhibition (HepG2, 0.1875 µM) is reported as 50%, the target mRNA inhibition (HepG2, 0.75 µM) is reported as 86% and the target mRNA inhibition (HepG2, 3 µM) is reported as 90%. For the same sequence, the target mRNA inhibition (HepG2, 4 µM) was 90% and the target mRNA inhibition (HepG2, 12 µM) was 97%.
Sequence “ATGAACATGGAATCCAT (sugars e3 k2 d7 k2 e3, PS)” has a target mRNA inhibition (HepG2, 3 µM) of 8%.
Work on “TAAGTCTGGCAAAATAC (sugars e2 k2 d9 k2 e2, PS)” yielded a target mRNA inhibition (HepG2, 5 µM) of 46%.
Sequence “CTCAGACTACATCCAAG (sugars e2 k2 d9 k2 e2, PS)” has a target mRNA inhibition (HepG2, 0.1875 µM) of 0%, a target mRNA inhibition (HepG2, 0.75 µM) of 40% and a target mRNA inhibition (HepG2, 3 µM) of 78%. It also gave a target mRNA inhibition (HepG2, 4 µM) of 76% and a target mRNA inhibition (HepG2, 12 µM) of 92%.
Work on “ACACCACAAGCCAAACGACT (sugars e5 d10 e5, PS)” yielded a target mRNA inhibition (HepG2, 5 µM) of 49%.
With “AAATACAGGTCATTGAA (sugars e2 k2 d9 k2 e2, PS)” the target mRNA inhibition (HepG2, 5 µM) was 47%.
With “GTGTTTAATGTTTATC (sugars kekeddddddddekek, linkages s1 o3 s8 o1 s2)” the target mRNA inhibition (A431, 0.12 µM) was 7%, the target mRNA inhibition (A431, 0.6 µM) was 35% and the target mRNA inhibition (A431, 3 µM) was 66%. For the same sequence, the target mRNA inhibition (A431, 15 µM) was 78%, the target mRNA inhibition (HepG2, 0.222 µM) was 53% and the target mRNA inhibition (HepG2, 0.667 µM) was 78%. It also gave a target mRNA inhibition (HepG2, 2 µM) of 82% and a target mRNA inhibition (HepG2, 6 µM) of 90%.
In the case of “TGACAAGTTTAATACCC (sugars e2 k2 d9 k2 e2, PS)”, the target mRNA inhibition (HepG2, 5 µM) is reported as 52%.
“CGCCATAACTCGCTAGGCCA (sugars e5 d10 e5, PS)” was tested, and the target mRNA inhibition (HepG2, 4 µM) was 59%.
“ATTTCTACAGCTAGCAG (sugars e2 k2 d9 k2 e2, PS)” showed a target mRNA inhibition (HepG2, 0.1875 µM) of 10%, a target mRNA inhibition (HepG2, 0.75 µM) of 47% and a target mRNA inhibition (HepG2, 3 µM) of 77%. The target mRNA inhibition (HepG2, 4 µM) was 75% and the target mRNA inhibition (HepG2, 12 µM) was 91%.
Sequence “CCAACATGCCTCTCTTC (sugars e3 k2 d7 k2 e3, PS)” has a target mRNA inhibition (HepG2, 3 µM) of 0%.
For “CAGGATACATTTCTACAGCT (sugars e5 d10 e5, linkages sososssssssssssosos)”, the target mRNA inhibition (A431, 0.062 µM) was 20%, the target mRNA inhibition (A431, 0.185 µM) was 29% and the target mRNA inhibition (A431, 0.556 µM) was 49%. The target mRNA inhibition (A431, 1.667 µM) was 69%, the target mRNA inhibition (A431, 5 µM) was 76% and the target mRNA inhibition (A431, 15 µM) was 83%. For the same sequence, the target mRNA inhibition (SH-SY5Y, 0.062 µM) was 0%, the target mRNA inhibition (SH-SY5Y, 0.185 µM) was 17% and the target mRNA inhibition (SH-SY5Y, 0.556 µM) was 39%. The target mRNA inhibition (SH-SY5Y, 1.667 µM) was 59%, the target mRNA inhibition (SH-SY5Y, 5 µM) was 85% and the target mRNA inhibition (SH-SY5Y, 15 µM) was 82%.
For “CTGCACTGGTACAGCCTGCT (sugars e5 d10 e5, PS)”, the target mRNA inhibition (HepG2, 5 µM) was 38% and 29%.
With “GACTACATCCAAGGGAA (sugars e2 k2 d8 k2 e3, PS)” the target mRNA inhibition (HepG2, 4 µM) was 50%.
“AGGGTTTTTATTCACAG (sugars e3 k2 d7 k2 e3, PS)” gave a target mRNA inhibition (HepG2, 3 µM) of 24%.
“AACATGCCTCTCTTCAT (sugars e3 k2 d7 k2 e3, PS)” was tested, and the target mRNA inhibition (HepG2, 3 µM) was 13%.
For “CAGTCACATTGCCCAAGTCT (sugars e5 d10 e5, PS)”, the target mRNA inhibition (HepG2, 5 µM) was 40% and 27%.
In the case of “TCATTTCCACCTTTGCC (sugars e3 k2 d7 k2 e3, PS)”, the target mRNA inhibition (HepG2, 3 µM) is reported as 57%.
For “AGGTCATTGAAACAGAC (sugars e2 k2 d9 k2 e2, PS)”, the target mRNA inhibition (HepG2, 5 µM) was 44%.
“GTGTTTAATGTTTATCAGGA (sugars e5 d10 e5, PS)” was tested, and the target mRNA inhibition (HepG2, 0.1875 µM) was 18%, the target mRNA inhibition (HepG2, 0.75 µM) was 45% and the target mRNA inhibition (HepG2, 3 µM) was 74%. The target mRNA inhibition (HepG2, 5 µM) was 73% and the target mRNA inhibition (HepG2, 12 µM) was 92%.
“GTCATTGAAACAGACAT (sugars e2 k2 d9 k2 e2, PS)” was tested, and the target mRNA inhibition (HepG2, 5 µM) was 15%.
“CTCACTACAGGTACTTT (sugars e2 k2 d9 k2 e2, PS)” showed a target mRNA inhibition (HepG2, 5 µM) of 54%.
For “ATCTTCCAAGTGATCAT (sugars e2 k2 d9 k2 e2, PS)”, the target mRNA inhibition (HepG2, 5 µM) was 38%.
“AGCCTCATAATAAGTGC (sugars e2 k2 d9 k2 e2, PS)” gave a target mRNA inhibition (HepG2, 5 µM) of 11%.

Source: the OligoGym collection
